Activity change, negative = cytotoxicity data for 75 compounds are collected here from PubChem BioAssay AID504726 (Broad Institute, 2011).

The source made the active and inactive calls.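 Rule for the calls: active = fitted half-maximal concentration for a cytotoxic signal drop no higher than ten times the top valid dose tested; inconclusive = flat curve between -70 and -30 percent, or an unreliable fit; inactive = flat within 30 percent, signal rise, or potency beyond limit.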

The assay can be described thus: HeLa cell cytotoxicity, dose response, cytotoxicity control, 24 h, cherry-picked samples (AID 504726).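 Note: 0% = DMSO neutral controls and -100% = mitoxantrone positive controls.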 As to conditions: HeLa viability, CellTiter-Glo ATP luminescence, 24 h; at 35 µM (top of the series). A general note: In ATP-based viability assays light output follows the ATP content of the culture.
On to `CCOC(=O)C1=C(O)/C(=C/c2cc(C)n(-c3ccccc3)c2C)N=C1C`, for which the activity change, negative = cytotoxicity was 3.92% (inactive). As for `O=C(O)c1ccccc1NC(=O)c1cc(-c2ccccc2)nc2ccccc12`, the figure is -2.32% (inactive). As for `O=C(OCc1ccccc1)N1C=CC2CC1c1c(Cl)cccc12` (stereo not given), the figure is -8.44% (inactive); as for `O=C1C=C(c2ccoc2)N2CCC[C@H]2C1`, -3.65% (inactive). For the compound `COc1ccc(Cn2nnc3c(=O)[nH]c(C4CCCN(C(=O)c5ccccc5)C4)nc32)cc1` (stereo not given), the activity change, negative = cytotoxicity is -5.25% (inactive). Turning to `COc1cc(-c2ccc(Nc3ccccc3C(=O)O)c(OC)c2)ccc1Nc1ccccc1C(=O)O`, the activity change, negative = cytotoxicity is -14.8% (inactive). With `CCNc1nc(NC(C)C)nc(NS(=O)(=O)c2ccc(N)cc2)n1` the figure was -6.72% (inactive); with `COc1cccc(NC(=S)N2CCN(C(c3ccccc3)c3ccccc3)CC2)c1`, -2.14% (inactive); with `Cc1cccc(N2C(=O)c3cccc4c(N)ccc(c34)C2=O)c1`, 3.39% (inactive). With `COc1ccc(C2(CNC(=O)CCC(=O)O)CCCC2)cc1OC`, the activity change, negative = cytotoxicity is -16% (inactive). For the compound `Nc1nc(SCC(=O)N2CCCCC2)[nH]c(=O)c1NC(=O)c1cccs1`, the activity change, negative = cytotoxicity is -0.747% (inactive). For `CC(C)CCN1C(=O)c2cccc3c(N)ccc(c23)C1=O`, the activity change, negative = cytotoxicity is -14.7% (inactive). As for `CS(=O)(=O)c1cccc(C(=O)Oc2ccccc2)c1`, the figure is 5.26% (inactive); as for `COc1ccc(-c2cc(C(F)(F)F)n3ncc(C(=O)N4CCCCC4c4cccnc4)c3n2)cc1` (stereo not given), -6.34% (inactive). In the case of `Cc1c(C#N)c(=O)c(-[n+]2ccccc2)c([S-])n1-c1ccc(Cl)cc1`, the activity change, negative = cytotoxicity was -8.57% (inactive). As for `Cc1nc(Cl)c2c(n1)NC1=C(O2)C(=O)CCC1`, the figure is -16.2% (inactive); as for `Cc1ccccc1N1C(=O)c2cccc3c(N(C)CCO)ccc(c23)C1=O`, -13.3% (inactive). With `NC1=NC[C@@H](Cc2ccc(O)cc2)N1CCc1cc(C(F)(F)F)cc(C(F)(F)F)c1` the figure was -9.29% (inactive). Take `COc1ccc(/C=C/c2cc(C(F)(F)F)[nH]c(=O)n2)cc1OC`: the activity change, negative = cytotoxicity was -6.08% (inactive).

On to `CCCCc1ccc(C(=O)O)nc1`, for which the activity change, negative = cytotoxicity was -11.4% (inactive). As for `O=C(NCCCO)c1ccc2nc(-c3ccco3)c(-c3ccco3)nc2c1`, the figure is -12.3% (inactive). As for `FC(F)(F)c1nnc(-c2ccccc2)nc1N1CCCC1`, the figure is -13.4% (inactive); as for `c1ccc(-c2cn3nc(-c4ccccc4)c(-c4ccccc4)nc3n2)cc1`, -12.6% (inactive); as for `S=c1c2c(nc3nc[nH]n13)CCC2`, -7.9% (inactive). With `COC(=O)c1ccccc1OCC(=O)N1CCN(c2ccc(Cl)cc2)CC1` the figure was -6.81% (inactive); with `CCN(CC)c1ccc2cc(S(=O)(=O)c3ccc(Cl)cc3)c(=O)oc2c1`, -13.6% (inactive); with `CCN(CC(=O)Nc1ccc(OC)cc1)C(=O)c1cc([N+](=O)[O-])ccc1N1CCOCC1`, -3.5% (inactive). Turning to `COc1cccc2c1NC(C(=O)O)C1CC=CC21` (stereo not given), the activity change, negative = cytotoxicity is -12.8% (inactive).

Regarding `CCOC(=O)C1CCCN(c2ccc([N+](=O)[O-])c3nonc23)C1` (stereo not given), the activity change, negative = cytotoxicity was -8.2% (inactive). `NC(=S)N/N=C/c1cn(CCC(=O)O)nc1-c1cccc(Br)c1`: the activity change, negative = cytotoxicity was -7.24% (inactive). Consider `Cc1ccc(N(CC(=O)N2CCOCC2)S(C)(=O)=O)cc1`, for which the activity change, negative = cytotoxicity was -3.08% (inactive). Regarding `OCCN(CCO)c1nc(N2CCCCC2)c2nc(N(CCO)CCO)nc(N3CCCCC3)c2n1`, the activity change, negative = cytotoxicity was -1.48% (inactive). With `COc1cc(C(=S)N2CCN(c3cccc(Cl)c3)CC2)ccc1O` the figure was 9.69% (inactive); with `Nc1ccc(C(=O)Nc2ccc3c(O)cc(S(=O)(=O)O)cc3c2)cc1`, -4.38% (inactive); with `CCCOc1ccc(C=Nc2ccc(OC)c(S(=O)(=O)N3CCOCC3)c2)c(O)c1`, 19% (inactive). With `CN(C)c1ccc(/C=N/N(CCO)C2=NS(=O)(=O)c3ccccc32)cc1` the figure was -6.62% (inactive).

Consider `CC(C)C(=O)N1CCN(c2ccccc2NC(=S)NC(=O)c2ccco2)CC1`, for which the activity change, negative = cytotoxicity is -12.9% (inactive). With `CCOC(=O)C1CCCN(C(=O)C2c3ccccc3Oc3ccccc32)C1` (stereo not given), the activity change, negative = cytotoxicity was -6.62% (inactive). With `O=C(O)C1(c2ccccc2)CCN(S(=O)(=O)c2ccc(Cl)s2)CC1` the figure was -1.76% (inactive); with `COc1ccc(Cl)cc1C(=O)NNC(=O)c1cc2ccccc2o1`, -3.35% (inactive). In the case of `Fc1ccc(C2=CC(c3ccc(Br)o3)n3ncnc3N2)cc1` (stereo not given), the activity change, negative = cytotoxicity was -14.5% (inactive).

On to `CCOc1ccc(/C=C2\CCCc3c2nc2ccccc2c3C(=O)O)cc1OC`, for which the activity change, negative = cytotoxicity was -5% (inactive).

As to `Cc1ccc(N2CC(C(=O)Nc3nnc(SCC(=O)Nc4nc(C)cs4)s3)CC2=O)cc1` (stereo not given), the activity change, negative = cytotoxicity was -3.6% (inactive). With `CC1CCCN(C(=O)C(=O)c2cn(CC(=O)N3CCCCCC3)c3ccccc23)C1` (stereo not given), the activity change, negative = cytotoxicity is -6.83% (inactive). With `O=C(CCN1C(=O)/C(=C/c2ccco2)SC1=S)Nc1ccc(C(=O)O)c(O)c1` the figure was 2.73% (inactive); with `NC(=O)c1ccc(NC(=O)C2COc3ccccc3O2)cc1` (stereo not given), -1.55% (inactive). As for `Cc1ccc(C)c(OCC(=O)N(Cc2nnc(-c3ccccc3Cl)o2)C2CC2)c1`, the activity change, negative = cytotoxicity was -0.736% (inactive). As for `CN(c1ccccc1)S(=O)(=O)c1cccc(NS(=O)(=O)c2cccc(C(=O)O)c2)c1`, the figure is 3.74% (inactive). For the compound `Cc1ccccc1C1=C/C(=C(\SS/C(C(=O)c2ccc(OCC(=O)O)c(Cl)c2Cl)=C2\C=C(c3ccccc3C)SS2)C(=O)c2ccc(OCC(=O)O)c(Cl)c2Cl)SS1`, the activity change, negative = cytotoxicity was -8.33% (inactive). Take `CC(/C=C1\SC(=S)N(CCCC(=O)Nc2ccc(C(=O)O)cc2)C1=O)=C\c1ccccc1`: the activity change, negative = cytotoxicity is 3.31% (inactive). As for `Cc1cnc(NC(=O)Cc2c[nH]c3ccccc23)s1`, the activity change, negative = cytotoxicity is -3.77% (inactive).

Turning to `CC(=O)Nc1ccc(S(=O)(=O)Nc2nc3ccccc3nc2Nc2ccc(C(=O)O)c(O)c2)cc1`, the activity change, negative = cytotoxicity is -13.1% (inactive). As for `O=C(O)c1ccccc1NS(=O)(=O)c1ccc(N/N=C/c2ccc(O)c(O)c2)c([N+](=O)[O-])c1`, the figure is -10.9% (inactive); as for `Cc1c(NC(=O)CCC2CCCCC2)cc(C(=O)N2CCOCC2)cc1[N+](=O)[O-]`, 0.409% (inactive). With `COc1ccc(C(=O)N/N=C/c2ccc(OC)c(COc3ccccc3)c2)cc1` the figure was -5.44% (inactive).

As to `O=C(CN1C(=O)NC2(CCCC2)C1=O)Nc1ccccc1-c1ccccc1`, the activity change, negative = cytotoxicity was -3.7% (inactive).

In the case of `CSc1n[nH]c(=O)n1-c1cccc(Cl)c1`, the activity change, negative = cytotoxicity was 12.8% (inactive). Take `Oc1ccc2ccc3cccc[n+]3c2c1`: the activity change, negative = cytotoxicity is -13.8% (inactive). With `Cc1cc(C)n(CCC(=O)N/N=C/c2ccc(O)cc2O)n1` the figure was -6.35% (inactive). As for `CCC(=O)Oc1ccc2c(c1)O/C(=C\c1ccco1)C2=O`, the figure is 4.02% (inactive). As for `COc1ccc(-c2nc(C(=O)O)cs2)cc1OC`, the figure is -5.71% (inactive). As for `COc1cccc(OC)c1C(=O)Nc1cc(C)on1`, the activity change, negative = cytotoxicity is 0.727% (inactive). As for `O=C(O)c1cccc(-n2cccc2/C=C2/NC(=O)N(c3ccc(Cl)cc3)C2=O)c1`, the activity change, negative = cytotoxicity was 0.035% (inactive). With `O=C(O)C1C2C=CC(CC2)C1C(=O)O` (stereo not given) the figure was -1.75% (inactive); with `C/C(=N/NC(=O)c1cc(O)c(O)c(O)c1)c1ccc([N+](=O)[O-])cc1`, -1.35% (inactive).

With `CN(C)c1ccc(O)c2c1CC1CC3[C@@H](N(C)C)C(=O)C(C(N)=O)=C(O)[C@]3(O)C(=O)C1=C2O` (stereo not given in full), the activity change, negative = cytotoxicity was -1.73% (inactive).

As to `O=C(CCNc1ccc(Cc2ccncc2)cc1)c1cccc([N+](=O)[O-])c1`, the activity change, negative = cytotoxicity is -10% (inactive). With `O=c1cc(-c2ccc(O)c(O)c2)oc2cc(O[C@@H]3O[C@H](CO)[C@@H](O)[C@H](O)[C@H]3O)cc(O)c12` the figure was -8.55% (inactive); with `CNc1ccc2c3c(cccc13)C(=O)N(C)C2=O`, -12.7% (inactive). As for `CCOC(=O)C1Nc2ccccc2C2C(O)C(O)CC12` (stereo not given), the figure is 7.37% (inactive); as for `COc1cccc(-c2cc(C(=O)N3CCN(S(=O)(=O)c4ccccc4)CC3)[nH]n2)c1`, -17.3% (inactive); as for `C=C1c2cccc(O)c2C(O)=C2C(=O)[C@]3(O)C(O)=C(C(N)=O)C(=O)[C@@H](N(C)C)[C@@H]3[C@@H](O)[C@H]12`, -2.76% (inactive). As for `COC(=O)c1c(C)oc2ccc(N(C(C)=O)S(=O)(=O)c3ccccc3)cc12`, the figure is 1.25% (inactive). Take `CC(=O)O[C@@H]1[C@@H](OC(C)=O)[C@H](n2ccc3cc([N+](=O)[O-])ccc32)OC[C@@H]1OC(C)=O`: the activity change, negative = cytotoxicity is -3.68% (inactive). With `O=C(O)c1ccccc1C1=Nc2ccc(O)cc2Oc2cc(O)ccc21` the figure was -3.9% (inactive).
